We go through nine molecules from patent publication US9896441B2 (Lycera Corporation, priority 2014, dated 2018).

What is called EC50 is the concentration needed to bring the measured effect to its halfway point. A lower EC50 goes with a more potent agent.

Assay [1] concerns the target T1, RORγ-LBD (Homo sapiens, UniProt P51449).
T1 construct: made in house; host or cells: SF9 cells (baculovirus); used as diluted lysate
T1 sequence (P51449 269-508 limits assumed): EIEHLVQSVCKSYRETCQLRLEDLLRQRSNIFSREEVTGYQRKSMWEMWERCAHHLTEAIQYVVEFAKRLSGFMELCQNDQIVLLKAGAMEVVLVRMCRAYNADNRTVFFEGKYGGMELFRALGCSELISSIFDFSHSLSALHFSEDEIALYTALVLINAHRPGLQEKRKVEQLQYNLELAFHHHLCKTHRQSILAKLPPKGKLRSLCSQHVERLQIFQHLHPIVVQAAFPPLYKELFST
Kind of assay: RORγ-Ligand Binding Domain (LBD) TR-FRET Assay. In kind it is biochemical. The conditions noted are these: with 2 μM ursolic acid (RORγ antagonist); highest test concentration 10 μM. The method, boiled down: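 SF9 lysate containing His-RORγ-LBD, ~3 nM final; coactivator peptide biotin-SRC1 LXXLL, 200 nM final; ursolic acid 2 μM final; DMSO 1% final; Tris pH 7.0 buffer with KCl, EDTA, DTT, BSA. TR-FRET format.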
For orientation: Time-resolved FRET reads energy transfer from a long-lived donor to a nearby acceptor.

Assay [2] addresses T2, Gal4-RORγ-LBD (Homo sapiens, UniProt P51449).
T2 construct: expressed in transfected cells
T2 sequence (P51449 269-508 limits assumed): T1 sequence (P51449 269-508 limits assumed)
The experiment in a line: Gal4-RORγ Luciferase Reporter Assay in HEK-293T Cells. The note with it: HEK-293 cells, ursolic acid present, luciferase readout. In kind it is cell-based. A digest of the protocol: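 HEK-293 cells were co-transfected with Gal4-RORγ-LBD and a Gal4-luciferase reporter, then exposed overnight at 37 °C to compounds with […] ursolic acid present (0.2% DMSO). Luminescence was read with One-Glo after 10 min at RT, untreated signal was set as 100, and Max Response was taken as the upper plateau of a 4-parameter logistic fit.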

In the case of `CC/C(=C\c1ccc2c(c1)N(S(=O)(=O)c1cccc(C(F)(F)F)c1)C[C@H](CCC(=O)OC)O2)C(C)C` [Example 191H, methyl (S,E)-3-(6-(2-ethyl-3-methylbut-1-en-1-yl)-4-((3-(trifluoromethyl)phenyl)sulfonyl)-3,4-dihydro-2H-benzo[b][1,4]-oxazin-2-yl)propanoate], the EC50 in assay [1] and in assay [2] was less than 500 nM each time.
Take `O=C(O)CC[C@H]1CN(S(=O)(=O)c2cccc(C(F)(F)F)c2)c2cc(C3=CCCC3)ccc2O1` [Example 192, (S)-3-(6-(cyclopent-1-en-1-yl)-4-((3-(trifluoromethyl)phenyl)sulfonyl)-3,4-dihydro-2H-benzo[b][1,4]oxazin-2-yl)propanoic acid]: the 50% effective concentration (EC50) is less than 500 nM in assay [1] and 500 to 5000 nM in assay [2].
On the same counts, the results for `O=C(O)CC[C@H]1CN(S(=O)(=O)c2cccc(C(F)(F)F)c2)c2cc(C3=CCCCC3)ccc2O1` [Example 193, (S)-3-(6-(cyclohex-1-en-1-yl)-4-((3-(trifluoromethyl)phenyl)sulfonyl)-3,4-dihydro-2H-benzo[b][1,4]oxazin-2-yl)propanoic acid] are less than 500 nM and less than 500 nM.
On the same counts, the results for `O=C(O)CC[C@H]1CN(S(=O)(=O)c2cccc(C(F)(F)F)c2)c2cc(C3CCCCC3)ccc2O1` [Example 194, (S)-3-(6-cyclohexyl-4-((3-(trifluoromethyl)phenyl)sulfonyl)-3,4-dihydro-2H-benzo[b][1,4]oxazin-2-yl)propanoic acid] are less than 500 nM and less than 500 nM.
On the same counts, the results for `O=C(O)CCC[C@H]1CN(S(=O)(=O)c2cc(C(F)(F)F)cnc2OCCO)c2cc(/C=C/c3c(F)cccc3Cl)ccc2O1` [Example 195B, (S,E)-4-(6-(2-chloro-6-fluorostyryl)-4-((2-(2-hydroxyethoxy)-5-(trifluoro-methyl)pyridin-3-yl)sulfonyl)-3,4-dihydro-2H-benzo[b][1,4]-oxazin-2-yl)butanoic acid] are less than 500 nM and less than 500 nM.
For `COC(=O)CCC[C@H]1CN(S(=O)(=O)c2cc(C(F)(F)F)cnc2OCCO)c2cc(/C=C/c3c(F)cccc3Cl)ccc2O1` [Example 195C, methyl (S,E)-4-(6-(2-chloro-6-fluorostyryl)-4-((2-(2-hydroxyethoxy)-5-(trifluoro-methyl)pyridin-3-yl)sulfonyl)-3,4-dihydro-2H-benzo[b][1,4]-oxazin-2-yl)butanoate], the values for the concentration giving a half-maximal response (EC50) in assay [1] and in assay [2] were less than 500 nM and 500 to 5000 nM, respectively.
On the same counts, the results for `O=C(O)CCC[C@H]1CN(S(=O)(=O)c2cccc(C(F)(F)F)c2)c2cc(/C=C/c3c(F)cccc3Cl)ccc2O1` [Example 195D, (S,E)-4-(6-(2-chloro-6-fluorostyryl)-4-((3-(trifluoro-methyl)phenyl)sulfonyl)-3,4-dihydro-2H-benzo[b][1,4]oxazin-2-yl)butanoic acid] are less than 500 nM and less than 500 nM.
On the same counts, the results for `COC(=O)CCC[C@H]1CN(S(=O)(=O)c2cccc(C(F)(F)F)c2)c2cc(/C=C/c3c(F)cccc3Cl)ccc2O1` [Example 195E, methyl (S,E)-4-(6-(2-chloro-6-fluorostyryl)-4-((3-(trifluoro-methyl)phenyl)sulfonyl)-3,4-dihydro-2H-benzo[b][1,4]oxazin-2-yl)butanoate] are less than 500 nM and 500 to 5000 nM.
On the same counts, the results for `CCC(=Cc1ccc2c(c1)N(S(=O)(=O)c1cccc(C(F)(F)F)c1)C[C@H](CCCC(=O)O)O2)CC` [Example 195F, (S)-4-(6-(2-ethylbut-1-en-1-yl)-4-((3-(trifluoromethyl)phenyl)-sulfonyl)-3,4-dihydro-2H-benzo[b][1,4]oxazin-2-yl)butanoic acid] are less than 500 nM and less than 500 nM.
